We go through eight molecules from patent publication US8236523B2, “Camp reporters and high throughput assays” (The Johns Hopkins University, priority 2004, dated 2012).

What all share (type): cell-based
For assay [1], the system named is cAMP. The assay is described as follows: Dual-emission ratio (FRET) imaging of Epac-based cAMP reporters (ICUE1 and targeted fusions) in HEK-293 cells. To be noted: for increase in the ratio of cyan to yellow emissions (FRET response): HEK293 cells expressing ICUE1, 10 μM ISO, 50 μM FSK, 10 μM PGE1, 300 μM 8-pCPT-2′-O-Me-cAMP, average ± S.E.M; for increase in emission ratio of cyan to yellow upon cAMP elevations: ECFP/citrine reporters with truncated Epac2, HEK-293 cells. As to the method:
Cell Culture. […] Cells were then transfected with FuGENE-6 transfection reagent (Roche) or calcium phosphate and allowed to grow for 12-24 hours before imaging.
Imaging. Cells were washed twice with Hanks' balanced salt solution buffer after 12- to 24-h incubation at 37° C. culture medium. Cells were maintained in buffer in the dark at room temperature with addition of isoproterenol (Aldrich), forskolin (Calbiochem), Prostaglandin E1 (PGE1) (Sigma), and 8-(4-chloro-phenylthio)-2′-O-methyl adenosine 3′,5′-monophosphate (8-pCPT-2′-O-Me-cAMP) (Axxora Biolog) as indicated. Cells were also treated with P-(4,5-dimethoxy-2-nitrobenzyl) adenosine 3′,5′-monophosphate (DMNB-cAMP) (Molecular Probe).
Cells were imaged on a Zeiss Axiovert 200M microscope with a cooled charge-coupled device camera MicroMAX BFT512 (Roper Scientific) controlled by METAFLUOR 6.2 software (Universal Imaging). Dual-emission ratio imaging used a 420DF20 excitation filter, a 450DRLP dichroic mirror and two emission filters (475DF40 for ECFP, 535DF25 for citrine) alternated by a filter changer Lambda 10-2 (Sutter Instruments). Exposure time was 100-500 ms and images were taken every 8-30 s. Fluorescent images were background-corrected by subtracting autofluorescence intensities of untransfected cells (or background with no cells) from the emission intensities of fluorescent cells expressing reporters. The ratios of cyan to yellow emissions were then calculated at different time points and normalized by dividing all ratios by the emission ratio just prior to stimulation therefore setting the basal emission ratio to 1.

In assay [2] the test system is cAMP. Description: 96-well live cell plate reading of HEK293 cells expressing ICUE3. Conditions: for effect on ISO-stimulated response of ICUE3: PRO 10 μM. On the procedure: Plate reading used a 420DF20 excitation filter and two emission filters (470DF40 for cyan and 535DF25 for yellow). A baseline was established in three cycles, each consisting of a full plate reading of yellow intensity, followed by a reading of cyan intensity. Cells were then treated with isoproterenol (ISO; Aldrich), forskolin (Calbiochem), H89, propranolol, and 3-isobutyl-1-methylxanthine (IBMX) as indicated. Readings were taken in six or twenty additional cycles. Each cycle lasted 60 to 145 sec. Baseline FRET ratios were calculated as the average ratio of yellow/cyan for each well before the addition of drug. FRET change was calculated as the percent increase of FRET ratio over baseline for each well during a given cycle. The FRET changes of all wells having undergone the same drug treatment were then averaged within each cycle, and that cycle was correlated with time.
Live cell plate reading. HEK293 cells were transfected with cDNA encoding ICUE reporters using calcium phosphate at 40% confluency and allowed to grow for 40 hours. Cells were then trypsinized and plated in a Costar 3603 96-well assay plate (Coming) at a density of 150,000 cells per well. After incubation for another 24 hours, cells were washed once with HBSS and left in 150 μl HBSS at 20-25° C. Fluorescence reading was taken on a FLUOstar OPTIMA fluorescence microplate reader (BMG Labtechnologies Inc.) using a 420DF20 excitation filter and two emission filters (470DF40 for cyan and […] for yellow). A baseline was established in three cycles, each consisting of a full plate reading of yellow intensity, followed by a reading of cyan intensity. Each cycle lasted between 64 and 145 seconds. Readings were taken in additional cycles. FRET change was calculated as the percent increase of emission ratios (cyan-to-yellow) over baseline for each well during a given cycle. To assess the efficacy of the assay, several statistical parameters were calculated, including Z factor, coefficient of variation, and signal-to-noise ratio (Zhang et al., J. Biomol. Screen. 4, 67-73, 1999).

Assay [3] deals with cAMP. Description: High throughput 96-well plate assay using ICUE2 stable HEK293 cells. To be noted: 1 μM ISO, 100 μM IBMX, 50 μM FSK. On the procedure: HEK293 cells which stably express ICUE2 (“ICUE2 stable HEK293 cells”) were grown to confluency in 10 cm dishes in DMEM, 10% FBS, 1% penicillin/streptomycin, and 250 μg/ml G418. HEK-293 cells were transfected with cDNA encoding ICUE2 using calcium phosphate at 40% confluency and allowed to grow for 40 hours. Cells were removed from the dish using 0.05% trypsin, spun down, and replaced with fresh media. ICUE2 stable HEK293 cells were counted on a hemocytometer using trypan blue stain. One hundred fifty thousand (150,000) cells were plated per well on a 96-well clear bottom assay plate in a total of 0.2 ml of media per […] and allowed to double once. Media was removed, cells were washed with Hanks buffered salt solution (HBSS) and then covered with 0.05 ml of HBSS per well. In a separate sterile plate, appropriate drugs were added to each well containing HBSS for a total volume of 0.05 ml. […] A baseline was established in three cycles, each consisting of a full plate reading of yellow intensity, followed by a reading of cyan intensity. Cells were then treated with isoproterenol (ISO; […] Readings were taken in six or twenty additional cycles. […] Baseline FRET ratios were calculated as the average ratio of yellow/cyan for each well before the addition of drug. FRET change was calculated as the percent increase of FRET ratio over baseline for each well during a given cycle. The FRET changes of all wells having undergone the same drug treatment were then averaged within each cycle, and that cycle was correlated with time.

[4] abbreviates: 50 μM FSK, 10 μM PRO, 10 μM H89.
The mark [5] stands for this setting: plasma membrane-targeted ICUE1, 10 μM PGE1.
[6] abbreviates: ICUE1, 10 μM propranolol added after isoproterenol response reached plateau.

Entries after “also recorded” stand apart in the source; their conditions may differ.

On to `CO[C@@H]1[C@@H]2OP(=O)(O)OC[C@H]2O[C@H]1n1c(Sc2ccc(Cl)cc2)nc2c(N)ncnc21` [8-pCPT-2′-O-Me-cAMP, 8-(4-chloro-phenylthio)-2′-O-methyl adenosine 3′,5′-monophosphate], for which the “increase in the ratio of cyan to yellow emissions (FRET response)” value in the assay on cAMP [1] is 12.8%±0.9. For the same molecule, the “time to produce a half-maximal increase in emission ratios (t1/2)” value in the assay with cAMP [1] (ICUE1, 300 μM) is 10 to 15 min.

Regarding `COc1cc(COP2(=O)OCC3OC(n4cnc5c(N)ncnc54)C(O)C3O2)c([N+](=O)[O-])cc1OC` (stereo not drawn) [DMNB-cAMP, P-(4,5-dimethoxy-2-nitrobenzyl) adenosine 3′,5′-monophosphate], the “increase of emission ratio after UV uncaging” value with cAMP [1] (ICUE1, 100 μM DMNB-cAMP for 3 minutes, UV flash of 5 seconds) was 4.7%±0.7. Besides, in the assay on cAMP [1] (ICUE1, 100 μM DMNB-cAMP, UV flash of 5 seconds), the “time of emission ratio increase after UV uncaging” value was 15 to 30 s.

Take `O=S(=O)(NCCNC/C=C/c1ccc(Br)cc1)c1cccc2cnccc12` [H89]: the “effect on FSK-stimulated response of ICUE3” value with cAMP [2] (setting [4]) is given as “did not diminish the response of ICUE3; also recorded: appeared to increase the response amplitude”.

Take `CC(C)Cn1c(=O)n(C)c(=O)c2[nH]cnc21` [IBMX, 3-isobutyl-1-methylxanthine]: the “character of ICUE2 response (in words)” value in the assay with cAMP [3] is “increased the amplitude and sustained the responses”. Further, in the assay on cAMP [2] (1 μM ISO, 100 μM IBMX), the “effect on ISO-stimulated response of ICUE3” value was “sustained the response and increased its amplitude”.

Take `CCCCC[C@H](O)/C=C/[C@H]1[C@H](O)CC(=O)[C@@H]1CCCCCCC(=O)O` [PGE1, Prostaglandin E1]: in the assay on cAMP [1], the “increase in the ratio of cyan to yellow emissions (FRET response)” value is on record as 13.3%±0.9. In addition, the “FRET response in the nucleus” value in the assay on cAMP [1] (NLS-ICUE1, 10 μM PGE1) is on record as 3.4%±0.4. Moreover, in the assay on cAMP [1] (setting [5]), the “emission ratio increase at the plasma membrane” value is 12.6%±0.9 and the “time of emission ratio increase at the plasma membrane” value was in the range of 2 to 3 min.

As to `CC(C)NCC(O)COc1cccc2ccccc12` (stereo not drawn) [propranolol], the “effect on isoproterenol-stimulated FRET response” value in the assay with cAMP [1] (ICUE1, HEK293 cells, propranolol present) is reported as “prevented the isoproterenol-stimulated response”. Moreover, in the assay with cAMP [1] (setting [6]), the “time of full recovery of emission ratio” value lay within 6 to 8 min and the “time of initial decrease in emission ratio of cyan to yellow” value lay within 2 to 3 min. The “Average percent FRET response ± standard deviation, 0 sec.” value with cAMP [2] (0 sec., HEK293 cells expressing ICUE3, 1 μM ISO, 50 μM FSK, 10 μM PRO, 100 μM IBMX, 10 μM H89) is recorded as 7.61% ± 3.19%. Further, the “effect on ISO-stimulated response of ICUE3” value in the assay on cAMP [2] (1 μM ISO, 100 μM IBMX) was “inhibited”. Further, the “effect on FSK-stimulated response of ICUE3” value in the assay on cAMP [2] (setting [4]) is “had no effect”. In the assay with cAMP [2] (145 sec., HEK293 cells expressing ICUE3, 1 μM ISO, 50 μM FSK, 10 μM PRO, 100 μM IBMX, 10 μM H89), the “Average percent FRET response ± standard deviation, 145 sec.” value is 8.1% ± 1.38%. In addition, in the assay with cAMP [2] (290 sec., HEK293 cells expressing ICUE3, 1 μM ISO, 50 μM FSK, 10 μM PRO, 100 μM IBMX, 10 μM H89), the “Average percent FRET response ± standard deviation, 290 sec.” value was 6.54% ± 1.37%. Also, in the assay with cAMP [2] (435 sec., HEK293 cells expressing ICUE3, 1 μM ISO, 50 μM FSK, 10 μM PRO, 100 μM IBMX, 10 μM H89), the “Average percent FRET response ± standard deviation, 435 sec.” value is recorded as 3.73% ± 0.911%. The “Average percent FRET response ± standard deviation, 580 sec.” value in the assay on cAMP [2] (580 sec., HEK293 cells expressing ICUE3, 1 μM ISO, 50 μM FSK, 10 μM PRO, 100 μM IBMX, 10 μM H89) is 2.57% ± 1.33%. Also, the “Average percent FRET response ± standard deviation, 725 sec.” value in the assay on cAMP [2] (725 sec., HEK293 cells expressing ICUE3, 1 μM ISO, 50 μM FSK, 10 μM PRO, 100 μM IBMX, 10 μM H89) is listed as 1.83% ± 1.06%.

B1: T316-A501: ECFP/citrine reporter with Epac2 amino acids 316-501 of SEQ ID NO:20 (protein, listed as Mus musculus)
chain: MLLLSQMGPDAHMRMILRKPPGQRTVDDLEIIYDELLHIKALSHLSTTVKRELAGVLIFESHAKGGTVLFNQGEEGTSWYIILKGSVNVVIYGKGVVCTLHEGDDFGKLALVNDAPRAASIVLREDNCHFLRVDKEDFNRILRDVEANTVRLKEHDQDVLVLEKVPAGNRAANQGNSQPQQKYTVM
modifications: fused between ECFP and citrine
Take B1: the “increase in emission ratio of cyan to yellow upon cAMP elevations” value in the assay with cAMP [1] stood at 5%.

B2: P350-A501: ECFP and citrine fused with Epac2 domain, amino acids 350-501 of SEQ ID NO:20 (protein, listed as Mus musculus)
chain: ELLHIKALSHLSTTVKRELAGVLIFESHAKGGTVLFNQGEEGTSWYIILKGSVNVVIYGKGVVCTLHEGDDFGKLALVNDAPRAASIVLREDNCHFLRVDKEDFNRILRDVEANTVRLKEHDQDVLVLEKVPAGNRAANQGNSQPQQKYTVM
modifications: fused between ECFP and citrine
In the case of B2, the “increase in emission ratio of cyan to yellow upon cAMP elevations” value with cAMP [1] was “did not show a cAMP-dependent FRET change”.
